Legend:
[1] = test system: Onchocerca gutturosa adult male worms; assay: Onchocerca gutturosa in vitro screening model: adult worm motility score and MTT/formazan viability; type: cell-based; conditions: read-out: O. gutt Activity class
Dirofilaria immitis = assay: Heartworm screen Dirofilaria immitis (stage DiMF/DiL4 not specified in the tables); type: cell-based; conditions: read-out: D. immitis Activity class

Row | Structure (SMILES) | IC50 [1] | IC50 (Dirofilaria immitis)
1 | CN(C)c1cccnc1S(=O)(=O)Nc1cccc2c1N(C1CC1)CCC2 [Compound 42, N-(1-cyclo-propyl-1,2,3,4-tetra-hydroquin-olin-8-yl)-3-(dimethyl-amino)pyr-idine-2-sulfonamide] | 500 to 5000 nM | 500 to 5000 nM
2 | CN(C)c1cccnc1S(=O)(=O)Nc1cccc2c1NCCC2 [Compound 45, 3-(dimethyl-amino)-N-(1,2,3,4-tetra-hydroquin-olin-8-yl)-pyridine-2-sulfonamide] | 500 to 5000 nM | 500 to 5000 nM
3 | O=S(=O)(Nc1ccc(F)c2cccnc12)c1ncccc1C1CC1 [Compound 48, 3-cyclo-propyl-N-(5-fluoroquin-olin-8-yl)-pyridine-2-sulfonamide] | < 200 nM | 500 to 5000 nM
4 | Cc1cnc(C)c(S(=O)(=O)Nc2c(Cl)ccc3cccnc23)n1 [Compound 53, N-(7-chloro-quinolin-8-yl)-3,6-dimethyl-pyrazine-2-sulfonamide] | 500 to 5000 nM | 500 to 5000 nM
5 | Cc1cccnc1S(=O)(=O)Nc1cccc2c1N(C)CCC2 [Compound 55, 3-methyl-N-(1-methyl-1,2,3,4-tetra-hydroquin-olin-8-yl)-pyridine-2-sulfonamide] | 500 to 5000 nM | 500 to 5000 nM
6 | Cc1ccc(S(=O)(=O)Nc2ccc(C)c3cccnc23)nc1 [Compound 58, 5-methyl-N-(5-methyl-quinolin-8-yl)pyridine-2-sulfonamide] | 200 to 500 nM | 500 to 5000 nM
7 | CC(C)c1cccnc1S(=O)(=O)Nc1c(Cl)ccc2cccnc12 [Compound 68, N-(7-chloro-quinolin-8-yl)-3-iso-propylpyr-idine-2-sulfonamide] | < 200 nM | 500 to 5000 nM
8 | N#Cc1cccc(S(=O)(=O)Nc2ccc(F)c3cccnc23)c1 [Compound 72, 3-cyano-N-(5-fluoroquin-olin-8-yl)ben-zenesulfon-amide] | < 200 nM | 500 to 5000 nM
9 | O=S(=O)(Nc1c(Cl)ccc2cccnc12)c1ncccc1Cl [Compound 73, 3-chloro-N-(7-chloro-quinolin-8-yl)pyridine-2-sulfonamide] | < 200 nM | 500 to 5000 nM
10 | Cc1nccnc1S(=O)(=O)Nc1ccc(N2CCOCC2)c2cccnc12 [Compound 75, 3-methyl-N-(5-morpho-linoquinolin-8-yl)pyrazine-2-sulfonamide] | < 200 nM | 500 to 5000 nM
11 | CN(C)c1nccnc1S(=O)(=O)Nc1c(Cl)ccc2cccnc12 [Compound 76, N-(7-chloro-quinolin-8-yl)-3-(dimethyl-amino)pyr-azine-2-sulfonamide] | 500 to 5000 nM | 500 to 5000 nM
12 | CC(C)n1nccc1S(=O)(=O)Nc1c(Cl)ccc2cccnc12 [Compound 77, N-(7-chloro-quinolin-8-yl)-1-iso-propyl-1H-pyrazole-5-sulfonamide] | 200 to 500 nM | 500 to 5000 nM
13 | N#Cc1cccc(S(=O)(=O)Nc2ccc(N3CCOCC3)c3cccnc23)c1 [Compound 80, 3-cyano-N-(5-morpho-linoquinolin-8-yl)ben-zenesulfon-amide] | < 200 nM | 500 to 5000 nM
14 | CCn1ccnc1S(=O)(=O)Nc1ccc(C)c2cccnc12 [Compound 83, 1-ethyl-N-(5-methylquin-olin-8-yl)-1H-imidazole-2-sulfonamide] | < 200 nM | 200 to 500 nM
15 | CCn1ccnc1S(=O)(=O)Nc1c(OC)ccc2cccnc12 [Compound 84, 1-ethyl-N-(7-methoxyquin-olin-8-yl)-1H-imidazole-2-sulfonamide] | < 200 nM | 200 to 500 nM
16 | CCn1ccnc1S(=O)(=O)Nc1cccc2cc(OC)cnc12 [Compound 86, 1-ethyl-N-(3-methoxyquin-olin-8-yl)-1H-imidazole-2-sulfonamide] | < 200 nM | 200 to 500 nM
17 | Cc1ccc(S(=O)(=O)Nc2cccc3cc(F)cnc23)nc1 [Compound 87, N-(3-fluoro-quinolin-8-yl)-5-methyl-pyridine-2-sulfonamide] | < 200 nM | 200 to 500 nM
18 | Cc1ccc(S(=O)(=O)Nc2cc(F)cc3cccnc23)nc1 [Compound 88, N-(6-fluoro-quinolin-8-yl)-5-methyl-pyridine-2-sulfonamide] | 500 to 5000 nM | 500 to 5000 nM
19 | O=S(=O)(Nc1c(Cl)ccc2cccnc12)c1ncccc1F [Compound 98, N-(7-chloro-quinolin-8-yl)-3-fluoro-pyridine-2-sulfonamide] | < 200 nM | 500 to 5000 nM
20 | CN(C)c1cccnc1S(=O)(=O)Nc1c(Cl)ccc2cccnc12 [Compound 99, N-(7-chloro-quinolin-8-yl)-3-(dimethyl-amino)pyridine-2-sulfonamide] | 500 to 5000 nM | 500 to 5000 nM
21 | Cc1cccnc1S(=O)(=O)Nc1c(Cl)ccc2cccnc12 [Compound 100, N-(7-chloro-quinolin-8-yl)-3-methylpyr-idine-2-sulfon-amide] | < 200 nM | 500 to 5000 nM
22 | CCn1ccnc1S(=O)(=O)Nc1c(C)ccc2cccnc12 [Compound 102, 1-ethyl-N-(7-methylquin-olin-8-yl)-1H-imidazole-2-sulfonamide] | < 200 nM | 200 to 500 nM
23 | CCn1ccnc1S(=O)(=O)Nc1cc(C)cc2cccnc12 [Compound 103, 1-ethyl-N-(6-methylquin-olin-8-yl)-1H-imidazole-2-sulfonamide] | 500 to 5000 nM | 200 to 500 nM

Row | Structure (SMILES) | IC50 [1] | IC50 (Dirofilaria immitis)
24 | CCn1ccnc1S(=O)(=O)Nc1cccc2cc(C)cnc12 [Compound 105, 1-ethyl-N-(3-methylquin-olin-8-yl)-1H-imidazole-2-sulfonamide] | < 200 nM | 500 to 5000 nM
25 | CCn1ccnc1S(=O)(=O)Nc1cccc2ccc(C)nc12 [Compound 106, 1-ethyl-N-(2-methylquin-olin-8-yl)-1H-imidazole-2-sulfonamide] | 500 to 5000 nM | 200 to 500 nM
26 | CCn1ccnc1S(=O)(=O)Nc1cc(F)cc2cccnc12 [Compound 107, 1-ethyl-N-(6-fluoroquinolin-8-yl)-1H-imidazole-2-sulfonamide] | < 200 nM | 200 to 500 nM
27 | CCn1ccnc1S(=O)(=O)Nc1ccc(F)c2cccnc12 [Compound 108, 1-ethyl-N-(5-fluoroquinolin-8-yl)-1H-imidazole-2-sulfonamide] | 500 to 5000 nM | < 200 nM
28 | CCn1ccnc1S(=O)(=O)Nc1cccc2cc(F)cnc12 [Compound 109, 1-ethyl-N-(3-fluoroquinolin-8-yl)-1H-imidazole-2-sulfonamide] | < 200 nM | 200 to 500 nM
29 | CCn1ccnc1S(=O)(=O)Nc1ccc(Cl)c2cccnc12 [Compound 110, N-(5-chloro-quinolin-8-yl)-1-ethyl-1H-imidazole-2-sulfonamide] | 200 to 500 nM | 200 to 500 nM
30 | Cc1ccc(S(=O)(=O)Nc2c(C)ccc3cccnc23)nc1 [Compound 112, 5-methyl-N-(7-methyl-quinolin-8-yl)-pyridine-2-sulfonamide] | 200 to 500 nM | 500 to 5000 nM
31 | Cc1ccc(S(=O)(=O)Nc2cccc3cc(C)cnc23)nc1 [Compound 113, 5-methyl-N-(3-methyl-quinolin-8-yl)-pyridine-2-sulfonamide] | < 200 nM | 200 to 500 nM
32 | Cc1ccc(S(=O)(=O)Nc2c(Cl)ccc3cccnc23)nc1 [Compound 114, N-(7-chloro-quinolin-8-yl)-5-methylpyr-idine-2-sulfon-amide] | < 200 nM | 500 to 5000 nM
33 | CCn1ccnc1S(=O)(=O)Nc1cccc2cc(Cl)cnc12 [Compound 116, N-(3-chloro-quinolin-8-yl)-1-ethyl-1H-imidazole-2-sulfonamide] | 200 to 500 nM | 200 to 500 nM
34 | CCn1ccnc1S(=O)(=O)Nc1cc(OC)cc2cccnc12 [Compound 117, 1-ethyl-N-(6-methoxyquin-olin-8-yl)-1H-imidazole-2-sulfonamide] | 500 to 5000 nM | 200 to 500 nM
35 | Cc1ccc(S(=O)(=O)Nc2ccc(Cl)c3cccnc23)nc1 [Compound 118, N-(5-chloro-quinolin-8-yl)-5-methylpyr-idine-2-sulfon-amide] | < 200 nM | 500 to 5000 nM
36 | Cc1ccc(S(=O)(=O)Nc2cccc3c(Cl)ccnc23)nc1 [Compound 119, N-(4-chloro-quinolin-8-yl)-5-methylpyr-idine-2-sulfon-amide] | < 200 nM | 500 to 5000 nM
37 | Cc1ccc(S(=O)(=O)Nc2cccc3cc(Cl)cnc23)nc1 [Compound 120, N-(3-chloro-quinolin-8-yl)-5-methylpyr-idine-2-sulfon-amide] | 200 to 500 nM | 200 to 500 nM
38 | COc1cnc2c(NS(=O)(=O)c3ccc(C)cn3)cccc2c1 [Compound 121, N-(3-methoxy-quinolin-8-yl)-5-methylpyr-idine-2-sulfon-amide] | < 200 nM | 500 to 5000 nM
39 | CCn1ccnc1S(=O)(=O)Nc1cccc2c(OC)ccnc12 [Compound 122, 1-ethyl-N-(4-methoxyquin-olin-8-yl)-1H-imidazole-2-sulfonamide] | < 200 nM | 500 to 5000 nM
40 | COc1ccc(NS(=O)(=O)c2ccc(C)cn2)c2ncccc12 [Compound 123, N-(5-methoxy-quinolin-8-yl)-5-methylpyr-idine-2-sulfon-amide] | < 200 nM | 500 to 5000 nM
41 | COc1ccnc2c(NS(=O)(=O)c3ccc(C)cn3)cccc12 [Compound 124, N-(4-methoxy-quinolin-8-yl)-5-methylpyr-idine-2-sulfon-amide] | < 200 nM | 500 to 5000 nM
42 | COc1cc(NS(=O)(=O)c2ccc(C)cn2)c2ncccc2c1 [Compound 125, N-(6-methoxy-quinolin-8-yl)-5-methylpyr-idine-2-sulfon-amide] | < 200 nM | 500 to 5000 nM
43 | Cc1ccc(S(=O)(=O)Nc2ccc(F)c3cccnc23)nc1 [Compound 126, N-(5-fluoro-quinolin-8-yl)-5-methylpyr-idine-2-sulfon-amide] | 500 to 5000 nM | 200 to 500 nM
44 | Cc1ccc(S(=O)(=O)Nc2cc(C)cc3cccnc23)nc1 [Compound 127, 5-methyl-N-(6-methylquin-olin-8-yl)pyr-idine-2-sulfon-amide] | < 200 nM | 200 to 500 nM
45 | N#CCc1cccc(S(=O)(=O)Nc2cccc3cccnc23)n1 [Compound 150, 6-(cyanomethyl)-N-(quinolin-8-yl)pyridine-2-sulfonamide] | 200 to 500 nM | 500 to 5000 nM

Reference: patent US20240148744A1 (Celgene Corporation, priority 2021, published 2024)
